We go through 21 molecules from US10618903B2, “Heteroaryl substituted aminopyridine compounds” (BRISTOL-MYERS SQUIBB COMPANY, priority 2015, dated 2020).

The target in the assay is IRAK4 (Homo sapiens (Human), UniProt Q9NWZ3). The experiment in a line: IRAK4 Inhibition Assay. The class given is biochemical. To be noted: ATP 500 μM; IRAK4 0.6 nM. On the procedure:
The assays were performed in U-bottom 384-well plates. The final assay volume was 30 μL prepared from 15 μL additions of enzyme and substrates (fluoresceinated peptide and ATP) and test compounds in assay buffer (20 mM HEPES pH 7.2, 10 mM MgCl2, 0.015% Brij 35 and 4 mM DTT). The reaction was initiated by the combination of IRAK4 with substrates and test compounds. The reaction mixture was incubated at room temperature for 60 min. and terminated by adding 45 μL of 35 mM EDTA to each sample. The reaction mixture was analyzed on the Caliper LABCHIP® 3000 (Caliper, Hopkinton, Mass.) by electrophoretic separation of the fluorescent substrate and phosphorylated product. Inhibition data were calculated by comparison to no enzyme control reactions for 100% inhibition and vehicle-only reactions for 0% inhibition. The final concentrations of reagents in the assays are ATP, 500 μM; FL-IPTSPITTTYFFFKKK peptide 1.5 μM; IRAK4, 0.6 nM; and DMSO, 1.6%.

Chain of IRAK4 (Q9NWZ3 whole entry): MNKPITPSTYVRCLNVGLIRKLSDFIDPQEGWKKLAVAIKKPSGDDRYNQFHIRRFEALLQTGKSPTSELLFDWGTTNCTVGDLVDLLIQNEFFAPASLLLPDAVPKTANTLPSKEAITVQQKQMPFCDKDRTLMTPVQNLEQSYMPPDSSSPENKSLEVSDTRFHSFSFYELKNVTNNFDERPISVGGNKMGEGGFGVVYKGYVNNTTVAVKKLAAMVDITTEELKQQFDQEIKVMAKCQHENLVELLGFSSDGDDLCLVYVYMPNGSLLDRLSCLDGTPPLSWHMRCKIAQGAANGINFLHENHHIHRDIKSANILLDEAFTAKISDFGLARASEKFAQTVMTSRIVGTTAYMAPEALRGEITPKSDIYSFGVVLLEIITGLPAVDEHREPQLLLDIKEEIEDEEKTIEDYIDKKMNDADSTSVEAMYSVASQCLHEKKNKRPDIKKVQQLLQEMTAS

With `CC(C)Nc1cc(-c2cnn3cc(Cl)cnc23)ncc1C(=O)N[C@@H]1CC[C@@H](CO)OC1` [Example 77, 6-(6-chloropyrazolo[1,5-a]pyrimidin-3-yl)-N-((3R,6S)-6-(hydroxymethyl)tetrahydro-2H-pyran-3-yl)-4-(isopropylamino)nicotinamide], the IC50 came to 99 nM. Turning to `CC(C)Nc1cc(-c2cnn3cc(Cl)cnc23)ncc1C(=O)N[C@H]1CC[C@H](NC(=O)C(C)(C)O)CC1` [Example 78, 6-(6-chloropyrazolo[1,5-a]pyrimidin-3-yl)-N-((1r,4r)-4-(2-hydroxy-2-methylpropanamido)cyclohexyl)-4-(isopropylamino)nicotinamide], the IC50 is 29 nM. The figure for `COC1CCC(O)(CCNC(=O)c2cnc(-c3cnn4cc(Cl)cnc34)cc2NC2COC2)CC1` (stereo not drawn) [Example 79, 6-(6-chloropyrazolo[1,5-a]pyrimidin-3-yl)-N-(2-(1-hydroxy-4-methoxycyclohexyl)ethyl)-4-(oxetan-3-ylamino)nicotinamide] is 14 nM; for `CC[C@H](O)CNc1cc(-c2cnn3cc(Cl)cnc23)ncc1C(=O)NC[C@@H](F)C(C)(C)O` [Example 81, 6-(6-chloropyrazolo[1,5-a]pyrimidin-3-yl)-N—((R)-2-fluoro-3-hydroxy-3-methylbutyl)-4-(((S)-2-hydroxybutyl)amino)nicotinamide] it is 26 nM; for `CC(C)(O)[C@H](F)CNC(=O)c1cnc(-c2cnn3cc(Cl)cnc23)cc1NC1CCC(F)C1` (stereo partly drawn) [Example 85, 6-(6-chloropyrazolo[1,5-a]pyrimidin-3-yl)-N—((R)-2-fluoro-3-hydroxy-3-methylbutyl)-4-((3-fluorocyclopentyl)amino)nicotinamide] it is 2 nM. As to `CC(C)(O)[C@H](F)CNC(=O)c1cnc(-c2cnn3cc(Cl)cnc23)cc1NC1CCC(F)C1` (stereo partly drawn) [Example 86, 6-(6-chloropyrazolo[1,5-a]pyrimidin-3-yl)-N—((R)-2-fluoro-3-hydroxy-3-methylbutyl)-4-((3-fluorocyclopentyl)amino)nicotinamide], the IC50 was found to be 4 nM. The figure for `CNC(=O)[C@H]1CC[C@H](NC(=O)c2cnc(-c3cnn4cc(C#N)cnc34)cc2NC(C)C)CC1` [Example 88, 6-(6-cyanopyrazolo[1,5-a]pyrimidin-3-yl)-4-(isopropylamino)-N-((1r,4r)-4-(methylcarbamoyl)cyclohexyl)nicotinamide] is 34 nM; for `C[C@H](Nc1cc(-c2cnn3cc(C#N)cnc23)ncc1C(=O)NC[C@@H](F)C(C)(C)O)C(C)(C)O` [Example 100, 6-(6-cyanopyrazolo[1,5-a]pyrimidin-3-yl)-N—((R)-2-fluoro-3-hydroxy-3-methylbutyl)-4-(((S)-3-hydroxy-3-methylbutan-2-yl)amino)nicotinamide] it is 94 nM; for `CNC(=O)[C@H]1CC[C@H](NC(=O)c2cnc(-c3cnn4cc(C#N)cnc34)cc2NCC(C)(C)F)CC1` [Example 102, 6-(6-cyanopyrazolo[1,5-a]pyrimidin-3-yl)-4-((2-fluoro-2-methylpropyl)amino)-N-((1r,4r)-4-(methylcarbamoyl)cyclohexyl)nicotinamide] it is 80 nM. For `CC(C)(O)[C@H](F)CNC(=O)c1cnc(-c2cnn3cc(C#N)cnc23)cc1NC1CCCC1O` (stereo partly drawn) [Example 103, 6-(6-cyanopyrazolo[1,5-a]pyrimidin-3-yl)-N—((R)-2-fluoro-3-hydroxy-3-methylbutyl)-4-((2-hydroxycyclopentyl)amino)nicotinamide], the IC50 was determined as 44 nM. Under `CC(C)(O)[C@H](F)CNC(=O)c1cnc(C2=C3N=CC(C#N)C=C3N=N2)cc1N[C@@H]1CCCN(C(=O)CC(F)(F)F)C1` (stereo partly drawn) [Example 108, 6-(6-cyano-6H-pyrazolo[4,3-b]pyridin-3-yl)-N—((R)-2-fluoro-3-hydroxy-3-methylbutyl)-4-(((R)-1-(3,3,3-trifluoropropanoyl)piperidin-3-yl)amino)nicotinamide] stands 67 nM; under `CC(Nc1cc(-c2cnn3cc(C#N)cnc23)ncc1C(=O)NC[C@@H](F)C(C)(C)O)c1cccnc1` (stereo partly drawn) [Example 113, 6-(6-cyanopyrazolo[1,5-a]pyrimidin-3-yl)-N—((R)-2-fluoro-3-hydroxy-3-methylbutyl)-4-((1-(pyridin-3-yl)ethyl)amino)nicotinamide], 53 nM; under `CC(C)(O)[C@H](F)CNC(=O)c1cnc(-c2cnn3cc(C#N)cnc23)cc1N[C@@H]1CCN(c2cncnc2)C1` [Example 119, 6-(6-cyanopyrazolo[1,5-a]pyrimidin-3-yl)-N—((R)-2-fluoro-3-hydroxy-3-methylbutyl)-4-(((R)-1-(pyrimidin-5-yl)pyrrolidin-3-yl)amino)nicotinamide], 9 nM.

As for `CC(C)(O)[C@H](F)CNC(=O)c1cnc(-c2cnn3cc(C#N)cnc23)cc1NCC1(O)COC1` [Example 121, (R)-6-(6-cyanopyrazolo[1,5-a]pyrimidin-3-yl)-N-(2-fluoro-3-hydroxy-3-methylbutyl)-4-(((3-hydroxyoxetan-3-yl)methyl)amino)nicotinamide], the IC50 was 52 nM. On to `CO[C@H]1CC[C@H](NC(=O)c2cnc(-c3cnn4cc(C#N)cnc34)cc2NC2COC2)CC1` [Example 124, 6-(6-cyanopyrazolo[1,5-a]pyrimidin-3-yl)-N-((1r,4r)-4-methoxycyclohexyl)-4-(oxetan-3-ylamino)nicotinamide], for which the IC50 was 12 nM. On to `CC[C@H](O)CNc1cc(-c2cnn3cc(C#N)cnc23)ncc1C(=O)NC[C@@H](F)C(C)(C)O` [Example 125, 6-(6-cyanopyrazolo[1,5-a]pyrimidin-3-yl)-N—((R)-2-fluoro-3-hydroxy-3-methylbutyl)-4-(((S)-2-hydroxybutyl)amino)nicotinamide], for which the IC50 came out at 56 nM. For the molecule `CC(C)(O)[C@H](F)CNC(=O)c1cnc(-c2cnn3cccnc23)cc1NC1CCOCC1` [Example 126, (R)—N-(2-fluoro-3-hydroxy-3-methylbutyl)-6-(pyrazolo[1,5-a]pyrimidin-3-yl)-4-((tetrahydro-2H-pyran-4-yl)amino)nicotinamide], the concentration for half-maximal inhibition (IC50) is 22 nM.

In the case of `CC(C)Nc1cc(-c2cnn3cccnc23)ncc1C(=O)NC[C@@H](F)C(C)(C)O` [Example 127, (R)—N-(2-fluoro-3-hydroxy-3-methylbutyl)-4-(isopropylamino)-6-(pyrazolo[1,5-a]pyrimidin-3-yl)nicotinamide], the IC50 stood at 81 nM.

In the case of `CC(C)Nc1cc(-c2cnn3cc(C4CC4)cnc23)ncc1C(=O)NC[C@@H](F)C(C)(C)O` [Example 128, (R)-6-(6-cyclopropylpyrazolo[1,5-a]pyrimidin-3-yl)-N-(2-fluoro-3-hydroxy-3-methylbutyl)-4-(isopropylamino)nicotinamide], the IC50 came out at 75 nM.

Regarding `CC(C)Nc1cc(-c2cnn3cc(F)c(N)nc23)ncc1C(=O)NC[C@@H](F)C(C)(C)O` [Example 129, (R)-6-(5-amino-6-fluoropyrazolo[1,5-a]pyrimidin-3-yl)-N-(2-fluoro-3-hydroxy-3-methylbutyl)-4-(isopropylamino)nicotinamide], the IC50 worked out at 3 nM. Turning to `CC(C)(O)[C@H](F)CNC(=O)c1cnc(-c2cnc3cccnn23)cc1NC1COC1` [Example 131, (R)—N-(2-fluoro-3-hydroxy-3-methylbutyl)-6-(imidazo[1,2-b]pyridazin-3-yl)-4-(oxetan-3-ylamino)nicotinamide], the IC50 amounted to 13 nM.

The IC50 is the concentration that inhibits the measured activity by half.
